Experimental data reported in patent publication US20250326744A1, “PIPERAZINE DERIVATIVE OR SALT THEREOF, AND PHARMACEUTICAL COMPOSITION” (priority 2022, published 2025).
Where a name gives a salt, the structure may show the parent alone.

How the values were obtained:
mexB (PA) strain = test: Combinational effect with antibacterial agent against Pseudomonas aeruginosa (Test Examples 2 and 4): mexB (PA) strain with LVFX, TC or AZT at 1/4 MIC, EC99; assay type: cell-based; settings: Table 52, Test Example 2, 16 to 20 hours culture, OD595; for EC99, mexB (PA), AZT: combined with AZT at 1/4 MIC; for EC99, mexB (PA), LVFX: combined with LVFX at 1/4 MIC; for EC99, mexB (PA), TC: combined with TC at 1/4 MIC
Outline: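 EC99 denotes the minimum test-compound concentration (range 0–800 μM) that suppresses ≥99% of growth, measured by OD595, when combined with ¼ MIC levofloxacin (LVFX), tetracycline or aztreonam. The efflux-pump mutant mexB (PA), expressing mainly MexAB-OprM, was inoculated at 10^4–5 CFU/well in CAMHB for 16–20 h.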

S-3769 strain = test: Combinational effect with antibacterial agent against Pseudomonas aeruginosa (Test Examples 2 and 4): S-3769 strain with AMK or GM at 1/4 MIC, EC99; assay type: cell-based; settings: Table 52, Test Example 2, 16 to 20 hours culture, OD595; for EC99, S-3769 strain, AMK: combined with AMK at 1/4 MIC; for EC99, S-3769 strain, GM: combined with GM at 1/4 MIC
Outline: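 EC99, the lowest test-compound concentration inhibiting growth by ≥99% (OD595), was measured with aminoglycoside AMK or GM held at ¼ MIC. Strain S-3769, a MexY-overexpressing clinical isolate, was cultured in CAMHB at 10^4 to 5 CFU/well for 16–20 h; compound range 0–800 μM.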

CCOc1ccc(O)c(F)c1CN1CCN(C(=O)[C@H](N)C2CCN(CCc3cc(Cl)ccc3-c3ccccc3)CC2)CC1 [Example 104, hydrochloride of (R)-2-amino-2-(1-(2-(4-chloro-[1,1′-biphenyl]-2-yl)ethyl)piperidin-4-yl)-1-(4-(6-ethoxy-2-fluoro-3-hydroxybenzyl)piperazin-1-yl)ethan-1-one]
EC99, mexB (PA), AZT (mexB (PA) strain): A (12.5 μM<EC99≤25 μM) | EC99, mexB (PA), LVFX (mexB (PA) strain): B (25 μM<EC99≤100 μM) | EC99, mexB (PA), TC (mexB (PA) strain): A (12.5 μM<EC99≤25 μM) | EC99, S-3769 strain, AMK (S-3769 strain): S (EC99≤12.5 μM) | EC99, S-3769 strain, GM (S-3769 strain): S (EC99≤12.5 μM)

CCOc1cccc(F)c1CN1CCN(C(=O)[C@H](N)C2CCN(CCc3cc(Cl)ccc3-c3ccccc3O)CC2)CC1 [Example 107, (R)-2-amino-2-(1-(2-(4-chloro-2′-hydroxy-[1,1′-biphenyl]-2-yl)ethyl)piperidin-4-yl)-1-(4-(2-ethoxy-6-fluorobenzyl)piperazin-1-yl)ethan-1-one]
EC99, mexB (PA), AZT (mexB (PA) strain): A (12.5 μM<EC99≤25 μM) | EC99, mexB (PA), LVFX (mexB (PA) strain): A (12.5 μM<EC99≤25 μM) | EC99, mexB (PA), TC (mexB (PA) strain): A (12.5 μM<EC99≤25 μM) | EC99, S-3769 strain, AMK (S-3769 strain): A (12.5 μM<EC99≤25 μM) | EC99, S-3769 strain, GM (S-3769 strain): A (12.5 μM<EC99≤25 μM)

CCOc1cccc(F)c1CN1CCN(C(=O)[C@H](N)C2CCN(CCc3cc(Cl)ccc3-c3ccc(F)cc3O)CC2)CC1 [Example 108, Hydrochloride of (R)-2-amino-2-(1-(2-(4-chloro-4′-fluoro-2′-hydroxy-[1,1′-biphenyl]-2-yl)ethyl)piperidin-4-yl)-1-(4-(2-ethoxy-6-fluorobenzyl)piperazin-1-yl)ethan-1-one]
EC99, mexB (PA), AZT (mexB (PA) strain): B (25 μM<EC99≤100 μM) | EC99, mexB (PA), LVFX (mexB (PA) strain): B (25 μM<EC99≤100 μM) | EC99, mexB (PA), TC (mexB (PA) strain): A (12.5 μM<EC99≤25 μM) | EC99, S-3769 strain, AMK (S-3769 strain): S (EC99≤12.5 μM) | EC99, S-3769 strain, GM (S-3769 strain): A (12.5 μM<EC99≤25 μM)

CCOc1cccc(F)c1CN1CCN(C(=O)[C@H](N)C2CCN(CCc3ccccc3-c3ccccc3)CC2)CC1 [Example 109, hydrochloride of (R)-2-(1-(2-([1,1′-biphenyl]-2-yl)ethyl)piperidin-4-yl)-2-amino-1-(4-(2-ethoxy-6-fluorobenzyl)piperazin-1-yl)ethan-1-one]
EC99, mexB (PA), AZT (mexB (PA) strain): B (25 μM<EC99≤100 μM) | EC99, mexB (PA), LVFX (mexB (PA) strain): C (100 μM<EC99) | EC99, mexB (PA), TC (mexB (PA) strain): B (25 μM<EC99≤100 μM) | EC99, S-3769 strain, AMK (S-3769 strain): 4 µM | EC99, S-3769 strain, GM (S-3769 strain): A (12.5 μM<EC99≤25 μM)

CCOc1cccc(F)c1CN1CCN(C(=O)[C@H](N)C2CCN(CCc3ccccc3F)CC2)CC1 [Example 121, Hydrochloride of (R)-2-amino-1-(4-(2-ethoxy-6-fluorobenzyl)piperazin-1-yl)-2-(1-(2-fluorophenethyl)piperidin-4-yl)ethan-1-one]
EC99, mexB (PA), AZT (mexB (PA) strain): C (100 μM<EC99) | EC99, mexB (PA), LVFX (mexB (PA) strain): C (100 μM<EC99) | EC99, mexB (PA), TC (mexB (PA) strain): C (100 μM<EC99) | EC99, S-3769 strain, AMK (S-3769 strain): B (25 μM<EC99≤100 μM) | EC99, S-3769 strain, GM (S-3769 strain): B (25 μM<EC99≤100 μM)

CCOc1cccc(F)c1CN1CCN(C(=O)[C@H](N)C2CCN(CCc3ccccc3OC)CC2)CC1 [Example 122, Hydrochloride of (R)-2-amino-1-(4-(2-ethoxy-6-fluorobenzyl)piperazin-1-yl)-2-(1-(2-methoxyphenethyl)piperidin-4-yl)ethan-1-one]
EC99, mexB (PA), AZT (mexB (PA) strain): C (100 μM<EC99) | EC99, mexB (PA), LVFX (mexB (PA) strain): C (100 μM<EC99) | EC99, mexB (PA), TC (mexB (PA) strain): C (100 μM<EC99) | EC99, S-3769 strain, AMK (S-3769 strain): B (25 μM<EC99≤100 μM) | EC99, S-3769 strain, GM (S-3769 strain): A (12.5 μM<EC99≤25 μM)

CCOc1cccc(F)c1CN1CCN(C(=O)[C@H](N)C2CCN(CCC3CCCCO3)CC2)CC1 (some centres unmarked) [Example 123]
EC99, mexB (PA), AZT (mexB (PA) strain): C (100 μM<EC99) | EC99, mexB (PA), LVFX (mexB (PA) strain): C (100 μM<EC99) | EC99, mexB (PA), TC (mexB (PA) strain): C (100 μM<EC99) | EC99, S-3769 strain, AMK (S-3769 strain): C (100 μM<EC99) | EC99, S-3769 strain, GM (S-3769 strain): C (100 μM<EC99)

CCOc1cccc(F)c1CN1CCN(C(=O)[C@H](N)C2CCN(CCc3cc(Cl)ccc3-c3ccccc3)CC2)CC1 [Example 137, (R)-2-amino-2-(1-(2-(4-chloro-[1,1′-biphenyl]-2-yl)ethyl)piperidin-4-yl)-1-(4-(2-ethoxy-6-fluorobenzyl)piperazin-1-yl)ethan-1-one]
EC99, mexB (PA), AZT (mexB (PA) strain): S (EC99≤12.5 μM) | EC99, mexB (PA), LVFX (mexB (PA) strain): A (12.5 μM<EC99≤25 μM) | EC99, mexB (PA), TC (mexB (PA) strain): A (12.5 μM<EC99≤25 μM) | EC99, S-3769 strain, AMK (S-3769 strain): S (EC99≤12.5 μM) | EC99, S-3769 strain, GM (S-3769 strain): S (EC99≤12.5 μM)

CCOc1cccc(F)c1CN1CCN(C(=O)[C@H](N)C2CCN(CCc3cc(Cl)ccc3-c3ccccc3F)CC2)CC1 [Example 139, hydrochloride of (R)-2-amino-2-(1-(2-(4-chloro-2′-fluoro-[1,1′-biphenyl]-2-yl)ethyl)piperidin-4-yl)-1-(4-(2-ethoxy-6-fluorobenzyl)piperazin-1-yl)ethan-1-one]
EC99, mexB (PA), AZT (mexB (PA) strain): A (12.5 μM<EC99≤25 μM) | EC99, mexB (PA), LVFX (mexB (PA) strain): A (12.5 μM<EC99≤25 μM) | EC99, mexB (PA), TC (mexB (PA) strain): A (12.5 μM<EC99≤25 μM) | EC99, S-3769 strain, AMK (S-3769 strain): S (EC99≤12.5 μM) | EC99, S-3769 strain, GM (S-3769 strain): S (EC99≤12.5 μM)

CCOc1cccc(F)c1CN1CCN(C(=O)[C@H](N)C2CCN(CCc3c[nH]c4ccccc34)CC2)CC1 [Example 148, hydrobromide of (R)-2-(1-(2-(1H-indol-3-yl)ethyl)piperidin-4-yl)-2-amino-1-(4-(2-ethoxy-6-fluorobenzyl)piperazin-1-yl)ethan-1-one]
EC99, mexB (PA), AZT (mexB (PA) strain): C (100 μM<EC99) | EC99, mexB (PA), LVFX (mexB (PA) strain): C (100 μM<EC99) | EC99, mexB (PA), TC (mexB (PA) strain): B (25 μM<EC99≤100 μM) | EC99, S-3769 strain, AMK (S-3769 strain): S (EC99≤12.5 μM) | EC99, S-3769 strain, GM (S-3769 strain): S (EC99≤12.5 μM)

CCOc1cccc(F)c1CN1CCN(C(=O)[C@H](N)C2CCN(CCc3cccc4ccc(OC)cc34)CC2)CC1 [Example 149, Hydrobromide of (R)-2-amino-1-(4-(2-ethoxy-6-fluorobenzyl)piperazin-1-yl)-2-(1-(2-(7-methoxynaphthalen-1-yl)ethyl)piperidin-4-yl)ethan-1-one]
EC99, mexB (PA), AZT (mexB (PA) strain): C (100 μM<EC99) | EC99, mexB (PA), LVFX (mexB (PA) strain): C (100 μM<EC99) | EC99, mexB (PA), TC (mexB (PA) strain): B (25 μM<EC99≤100 μM) | EC99, S-3769 strain, AMK (S-3769 strain): S (EC99≤12.5 μM) | EC99, S-3769 strain, GM (S-3769 strain): S (EC99≤12.5 μM)

CCOc1cccc(F)c1CN1CCN(C(=O)[C@H](N)C2CCN(CCc3csc4ccccc34)CC2)CC1 [Example 150, Hydrobromide of (R)-2-amino-2-(1-(2-(benzo[b]thiophen-3-yl)ethyl)piperidin-4-yl)-1-(4-(2-ethoxy-6-fluorobenzyl)piperazin-1-yl)ethan-1-one]
EC99, mexB (PA), AZT (mexB (PA) strain): B (25 μM<EC99≤100 μM) | EC99, mexB (PA), LVFX (mexB (PA) strain): C (100 μM<EC99) | EC99, mexB (PA), TC (mexB (PA) strain): B (25 μM<EC99≤100 μM) | EC99, S-3769 strain, AMK (S-3769 strain): S (EC99≤12.5 μM) | EC99, S-3769 strain, GM (S-3769 strain): S (EC99≤12.5 μM)

CCOc1cccc(F)c1CN1CCN(C(=O)[C@H](N)C2CCN(CCC3CCCc4ccccc43)CC2)CC1 (stereo partly drawn) [Example 151, Hydrobromide of (2R)-2-amino-1-(4-(2-ethoxy-6-fluorobenzyl)piperazin-1-yl)-2-(1-(2-(1,2,3,4-tetrahydronaphthalen-1-yl)ethyl)piperidin-4-yl)ethan-1-one]
EC99, mexB (PA), AZT (mexB (PA) strain): C (100 μM<EC99) | EC99, mexB (PA), LVFX (mexB (PA) strain): C (100 μM<EC99) | EC99, mexB (PA), TC (mexB (PA) strain): C (100 μM<EC99) | EC99, S-3769 strain, AMK (S-3769 strain): B (25 μM<EC99≤100 μM) | EC99, S-3769 strain, GM (S-3769 strain): B (25 μM<EC99≤100 μM)
